From ChEMBL document CHEMBL4706747, “Discovery of 5-Nitro-6-thiocyanatopyrimidines as Inhibitors of Cryptococcus neoformans and Cryptococcus gattii” (ACS Med Chem Lett, 2021)
≈ marks a conversion by molar mass, not a printed value. Where “and” joins values, the source holds several entries; their conditions need not be identical. Identical values can stand only once.

Key:
Cryptococcus neoformans [1] = test: Antifungal activity against Cryptococcus neoformans assessed as fungal growth inhibition after 72 hrs by broth microdilution method; type: functional
Cryptococcus neoformans [2] = test: Antifungal activity against Cryptococcus neoformans KN99alpha assessed as fungal growth inhibition after 48 hrs by limiting dilution method; type: functional
[3] = Cytotoxicity against human HepDE19 cells incubated for 72 hrs by MTS assay; type: cell-based
[4] = Antifungal activity against Cryptococcus gattii RSA-3615 assessed as fungal growth inhibition after 48 hrs by limiting dilution method; type: functional, Cryptococcus gattii VGI
Cryptococcus neoformans [5] = test: Antifungal activity against fluconazole-resistant Cryptococcus neoformans DUMC-158.03 assessed as fungal growth inhibition after 48 hrs by limiting dilution method; type: functional
[6] = Selectivity index, ratio of CC50 for human HepDE19 cells to MIC80 for Cryptococcus neoformans KN99alpha; type: toxicity; details: read-out: Selectivity Index
Cryptococcus neoformans [7] = test: Synergistic antifungal activity against Cryptococcus neoformans KN99alpha assessed as fractional inhibitory concentration index in presence of fluconazole by checkerboard assay; type: functional
Cryptococcus neoformans [8] = test: Synergistic antifungal activity against Cryptococcus neoformans KN99alpha assessed as fractional inhibitory concentration index in presence of amphotericin B by checkerboard assay; type: functional

SMILES	MIC80 (Cryptococcus neoformans [2])	MIC80 [4]	CC50 at 72 h [3]	further results
O[C@@](Cn1cnnn1)(c1ccc(F)cc1F)C(F)(F)c1ccc(-c2ccc(OC(F)(F)F)cc2)cn1				MIC50 (Cryptococcus neoformans [1]): 0.015 µg/mL (≈ 0.0292 µM); MIC (Cryptococcus neoformans [1]; read-out: MIC100): 0.06 µg/mL (≈ 0.117 µM)
CC(C)C(C)Nc1ncnc(SC#N)c1[N+](=O)[O-] (stereo unspecified)	3 µM and 0.8 µg/mL			
N#CSc1ncnc(NCc2ccccc2)c1[N+](=O)[O-]	2.34 µM and 0.66 µg/mL	1.17 µM and 0.33 µg/mL	19.6 µM and 5.63 µg/mL	MIC80 (Cryptococcus neoformans [5]): 1.17 µM and 0.33 µg/mL
N#CSc1ncnc(N2CCCCC2)c1[N+](=O)[O-]	2.34 µM and 0.61 µg/mL	1.17 µM and 0.3 µg/mL	11.9 µM and 3.16 µg/mL	MIC80 (Cryptococcus neoformans [5]): 4.68 µM and 1.24 µg/mL
CC(C)Nc1nc(-c2ccccc2)nc(SC#N)c1[N+](=O)[O-]	50 µM and 15.8 µg/mL			
CSc1nc(NCCc2ccccc2)c([N+](=O)[O-])c(SC#N)n1	9.37 µM and 3.25 µg/mL	1.17 µM and 0.4 µg/mL	15.4 µM and 5.35 µg/mL	
COc1ncnc(SC#N)c1[N+](=O)[O-]	9.37 µM and 1.98 µg/mL	> 25 µM and > 5.3 µg/mL		
CC(C)Nc1ncnc(SC#N)c1[N+](=O)[O-]	2.34 µM and 0.55 µg/mL	0.58 µM and 0.13 µg/mL	12 µM and 2.87 µg/mL	MIC80 (Cryptococcus neoformans [5]): 2.34 µM and 0.55 µg/mL
CNc1nc(/C=C/c2ccccc2)nc(SC#N)c1[N+](=O)[O-]	> 50 µM and > 15.7 µg/mL	> 25 µM and > 7.83 µg/mL		
Cc1nc(OC(C)C)c([N+](=O)[O-])c(SC#N)n1	1 µM and 0.25 µg/mL	1.17 µM and 0.29 µg/mL	14.6 µM and 3.71 µg/mL	MIC80 (Cryptococcus neoformans [5]): 1.17 µM and 0.29 µg/mL
N#CSc1ncnc(N)c1[N+](=O)[O-]	4.68 µM and 0.92 µg/mL	1.17 µM and 0.22 µg/mL		
CN(C)c1ncnc(SC#N)c1[N+](=O)[O-]	4.68 µM and 1.05 µg/mL	1.17 µM and 0.26 µg/mL		
CCN(c1ncnc(SC#N)c1[N+](=O)[O-])C(C)C	4.55 µM and 1.4 µg/mL	1.17 µM and 0.3 µg/mL	10.7 µM and 2.86 µg/mL	
CSc1nc(NCc2ccc(C)cc2)c([N+](=O)[O-])c(SC#N)n1	9.37 µM and 3.25 µg/mL	4.68 µM and 1.62 µg/mL	19.2 µM and 6.67 µg/mL	
CN(Cc1ccccc1)c1ncnc(SC#N)c1[N+](=O)[O-]	2.34 µM and 0.7 µg/mL	1.17 µM and 0.35 µg/mL	18.8 µM and 5.66 µg/mL	
CC(C)Oc1ncnc(SC#N)c1[N+](=O)[O-]	1.9 µM and 0.45 µg/mL	1.17 µM and 0.27 µg/mL	23.3 µM and 5.6 µg/mL	
CCCOc1ncnc(SC#N)c1[N+](=O)[O-]	3.9 µM and 0.93 µg/mL	4.68 µM and 1.12 µg/mL	31.8 µM and 7.64 µg/mL	

SMILES	MIC80 (Cryptococcus neoformans [2])	MIC80 [4]	CC50 at 72 h [3]	further results
N#CSc1ncnc(N2CCCCCC2)c1[N+](=O)[O-]	2.34 µM and 0.65 µg/mL	2.34 µM and 0.65 µg/mL	17.7 µM and 4.94 µg/mL	MIC80 (Cryptococcus neoformans [5]): 2.34 µM and 0.65 µg/mL
N#CSc1ncnc(NCCc2ccccc2)c1[N+](=O)[O-]	3.51 µM and 1.05 µg/mL	2.34 µM and 0.7 µg/mL	15.1 µM and 4.55 µg/mL	
CSc1nc(NCc2ccccc2)c([N+](=O)[O-])c(SC#N)n1	4.68 µM and 1.56 µg/mL	4.68 µM and 1.56 µg/mL	18.6 µM and 6.2 µg/mL	
CCOc1nc(C)nc(SC#N)c1[N+](=O)[O-]	1.17 µM and 0.27 µg/mL	0.29 µM and 0.06 µg/mL	19.8 µM and 4.76 µg/mL	MIC80 (Cryptococcus neoformans [5]): 2.34 µM and 0.56 µg/mL
N#CSc1ncnc(NCc2cccc(C(F)(F)F)c2)c1[N+](=O)[O-]	9.37 µM and 3.32 µg/mL	4.68 µM and 1.66 µg/mL	25.9 µM and 9.21 µg/mL	
CN(c1ncnc(SC#N)c1[N+](=O)[O-])C1CCCCC1	6 µM and 1.76 µg/mL	4.68 µM and 1.37 µg/mL	25.3 µM and 7.42 µg/mL	
CNc1nc(C)nc(SC#N)c1[N+](=O)[O-]	2.34 µM and 0.52 µg/mL	1.17 µM and 0.26 µg/mL	> 100 µM and > 22.5 µg/mL	MIC80 (Cryptococcus neoformans [5]): 2.34 µM and 0.52 µg/mL
Cc1nc(NC2CC2)c([N+](=O)[O-])c(SC#N)n1	0.6 µM and 0.15 µg/mL	0.58 µM and 0.14 µg/mL	12.7 µM and 3.19 µg/mL	MIC80 (Cryptococcus neoformans [5]): 1.17 µM and 0.29 µg/mL; selectivity ratio [6]: 16; fractional inhibitory concentration index (FICI) (Cryptococcus neoformans [7]): 1.5; fractional inhibitory concentration index (FICI) (Cryptococcus neoformans [8]): 1.25
N#CSc1ncnc(NC2CCCC2)c1[N+](=O)[O-]	4.9 µM and 1.29 µg/mL	1.17 µM and 0.3 µg/mL		MIC80 (Cryptococcus neoformans [5]): 2.34 µM and 0.62 µg/mL
N#CSc1ncnc(NC2CCCCC2)c1[N+](=O)[O-]	6 µM and 1.67 µg/mL	1.17 µM and 0.32 µg/mL		
Cc1nc(N)c([N+](=O)[O-])c(SC#N)n1	2.34 µM and 0.48 µg/mL	0.58 µM and 0.12 µg/mL	24.5 µM and 5.17 µg/mL	MIC80 (Cryptococcus neoformans [5]): 2.34 µM and 0.49 µg/mL
CC(C)N(Cc1ccccc1)c1ncnc(SC#N)c1[N+](=O)[O-]	> 50 µM and > 16.5 µg/mL	> 25 µM and > 8.23 µg/mL		
CCC(CC)Nc1ncnc(SC#N)c1[N+](=O)[O-]	18.5 µM and 4.94 µg/mL	> 25 µM and > 6.68 µg/mL		
CCN(CC)c1ncnc(SC#N)c1[N+](=O)[O-]	9.37 µM and 2.37 µg/mL	0.14 µM and 0.03 µg/mL		
CCCOc1nc(C)nc(SC#N)c1[N+](=O)[O-]	0.6 µM and 0.15 µg/mL	1.17 µM and 0.29 µg/mL	15.8 µM and 4.02 µg/mL	MIC80 (Cryptococcus neoformans [5]): 1.17 µM and 0.29 µg/mL
CC(C)Nc1nc(C(F)(F)F)nc(SC#N)c1[N+](=O)[O-]	12.2 µM and 4.4 µg/mL	> 25 µM and > 7.68 µg/mL	42.8 µM and 13.2 µg/mL	MIC80 (Cryptococcus neoformans [5]): 18.8 µM and 5.76 µg/mL
N#CSc1ncnc(NCc2ccc(Cl)cc2)c1[N+](=O)[O-]	5.85 µM and 1.88 µg/mL	1.17 µM and 0.37 µg/mL	22.5 µM and 7.25 µg/mL	

The next lines start with results.

MIC80 (Cryptococcus neoformans [2])	MIC80 [4]	SMILES	CC50 at 72 h [3]	further results
9 µM and 2.51 µg/mL	2.34 µM and 0.65 µg/mL	Cc1nc(NC2CCCC2)c([N+](=O)[O-])c(SC#N)n1		
50 µM and 15.8 µg/mL	2.34 µM and 0.73 µg/mL	Cc1nc(NCCc2ccccc2)c([N+](=O)[O-])c(SC#N)n1	12.3 µM and 3.87 µg/mL	
4.68 µM and 1.37 µg/mL	2.34 µM and 0.68 µg/mL	N#CSc1ncnc(N2CCCCCCC2)c1[N+](=O)[O-]		
> 50 µM and > 24.6 µg/mL	> 25 µM and > 12.3 µg/mL	Cc1nc(NC2CCCCC2)c([N+](=O)[O-])c(SC#N)n1		
18.8 µM and 5.49 µg/mL	4.68 µM and 1.37 µg/mL	Cc1nc(SC#N)c([N+](=O)[O-])c(N2CCCCCC2)n1		
4.68 µM and 1.23 µg/mL	1.17 µM and 0.3 µg/mL	Cc1nc(SC#N)c([N+](=O)[O-])c(N2CCCC2)n1		
9.37 µM and 2.74 µg/mL	15.6 µM and 4.58 µg/mL	CC1CCCC(C)N1c1ncnc(SC#N)c1[N+](=O)[O-] (stereo unspecified)		
18.8 µM and 5.76 µg/mL	2.34 µM and 0.71 µg/mL	Cc1nc(SC#N)c([N+](=O)[O-])c(N2CCCCCCC2)n1		
18.8 µM and 5.49 µg/mL	0.58 µM and 0.16 µg/mL	Cc1nc(SC#N)c([N+](=O)[O-])c(N2CCCCC2C)n1 (stereo unspecified)		
50 µM and 15.1 µg/mL	18.8 µM and 5.64 µg/mL	Cc1nc(NCc2ccccc2)c([N+](=O)[O-])c(SC#N)n1	15.9 µM and 4.78 µg/mL	
9.37 µM and 2.61 µg/mL	1.17 µM and 0.32 µg/mL	CC1CCCCN1c1ncnc(SC#N)c1[N+](=O)[O-] (stereo unspecified)		
2.34 µM and 0.68 µg/mL	9.37 µM and 2.74 µg/mL	CC1CC(C)CN(c2ncnc(SC#N)c2[N+](=O)[O-])C1 (stereo unspecified)	33.6 µM and 9.86 µg/mL	
18.8 µM and 5.76 µg/mL	9.37 µM and 2.88 µg/mL	Cc1nc(SC#N)c([N+](=O)[O-])c(N2CC(C)CC(C)C2)n1 (stereo unspecified)		
9.37 µM and 2.5 µg/mL	2.34 µM and 0.62 µg/mL	CCN(CC)c1nc(C)nc(SC#N)c1[N+](=O)[O-]		
4.68 µM and 1.11 µg/mL	2.34 µM and 0.55 µg/mL	Cc1nc(SC#N)c([N+](=O)[O-])c(N(C)C)n1		
9 µM and 2.53 µg/mL	9.37 µM and 2.63 µg/mL	CCC(CC)Nc1nc(C)nc(SC#N)c1[N+](=O)[O-]		
50 µM and 15.8 µg/mL	1.17 µM and 0.36 µg/mL	Cc1ccc(CNc2nc(C)nc(SC#N)c2[N+](=O)[O-])cc1	14.7 µM and 4.65 µg/mL	
